Laboratory results taken from patent US20050112573A1, “Method of detecting toxic substance” (priority 2001, published 2005).

System: yeast genes (level of expressed mRNA)
Assay: DNA chip analysis of expressed mRNA of yeast genes after 2 h culture with a toxic chemical substance
Format: cell-based, Saccharomyces cerevisiae S288C
Procedure: Yeast (Saccharomyces cerevtisiae S288C (α SUC2mal mel gap2 CUP1)) were cultured at 25° C. on YPD medium (yeast extract 1%, polypepton 2%, glucose 2%). One of toxic chemical substances was added to the cell at logarithmic growth phase, and the cell was further cultured for two hours. Cell was cultured without any chemical substance in the same condition, and was used as control. Concentrations of the chemical substances were defined to inhibit the growth of the yeast but not lead to death.
After the completion of cultivation, the culture was centrifuged to collect the cells. To the cells, sodium acetate buffer (50 mM sodium acetate, 10 mM EDTA, 1% SDS) was added, and the mixture was shaken at 65° C. for five minutes, followed by returning to room temperature, and obtaining the supernatant, which procedure was repeated two times. To the supernatant, ½ amount of a solution of phenol/chloroform was added, and the mixture was centrifuged to give a supernatant, which was added with an equal amount of chloroform, and the mixture was centrifuged to give a supernatant. To the supernatant, an equal amount of isopropanol containing 0.3 M sodium acetate was added, and the mixture was allowed to stand at room temperature for 30 minutes, after which the mixture was centrifuged to give a sediment of the whole RNAs. Seventy % ethanol was added to the sediment, and the mixture was again centrifuged to give a sediment, which was then dried and dissolved in water. mRNA was isolated from the whole RNAs as followings. In view of the fact that a poly A chain is attached to the 3′ terminus of mRNA, a polynucleotide having a poly T structure which was immobilized on the surface of latex beads was used to trap the mRNA, and then the mRNA was washed and eluted with spine column (Oligotex-dT30<Super>mRNA Purification Kit, Takara). Reverse transcription of the mRNA was conducted with a reverse transcriptase (Super Script II Reverse Transcriptase; catalogue No. 18064-014, GibcoBRL) using fluorescence-labeled nucleotides to give cDNAs that were introduced with Cy3-dUTP or Cy5-dUTP during the reverse transcription.
The labeled cDNAs were dissolved in TE buffer (10 mM Tris-HCl/1 mM EDTA, pH8.0), and the solution was dropped on the DNA chip containing the whole genes of yeast (DNA Chip Research Inc. Japan) so that the cDNAs were hybridized on the DNA chip at 65° C. for over 12 hours. The fluoresces intensity of the DNA chip was read with a scanner, and the ratio relative to the fluorescence intensity resulting from the absence of chemical substance was estimated as the following, which is shown in Tables 1 to 9: [formula]
In the Tables, “Intensity” indicated in the rightmost column is a value of the level of expressed mRNA of each gene in control cells as divided by the average level of the expressions of the whole genes.

S=C([S-])NCCNC(=S)[S-].[Zn+2] [(11), zinc N,N′-ethylenebis(dithiocarbamate)]
The level of expressed mRNA in the presence of chemical substance/absence: YML029W (gene YML029W): 1.2
The level of expressed mRNA in the presence of chemical substance/absence: YML041C (gene YML041C): 0.9
The level of expressed mRNA in the presence of chemical substance/absence: YML079W (gene YML079W): 1.2
level of expressed mRNA in the presence of chemical substance/in its absence (gene YML110C): 1.7
The level of expressed mRNA in the presence of chemical substance/absence: YML118W (gene YML118W): 1.3
The level of expressed mRNA in the presence of chemical substance/absence: YMR068W (gene YMR068W): 1.1
The level of expressed mRNA in the presence of chemical substance/absence: YMR071C (gene YMR071C): 1.2
level of expressed mRNA in the presence of chemical substance/in its absence (gene YMR105C): 3.0
The level of expressed mRNA in the presence of chemical substance/absence: YMR114C (gene YMR114C): 1.0
The level of expressed mRNA in the presence of chemical substance/absence: YMR115W (gene YMR115W): 1.1
The level of expressed mRNA in the presence of chemical substance/absence: YMR160W (gene YMR160W): 1.0
level of expressed mRNA in the presence of chemical substance/in its absence (gene YMR189W): 8.2
The level of expressed mRNA in the presence of chemical substance/absence: YMR258C (gene YMR258C): 1.4
level of expressed mRNA in the presence of chemical substance/in its absence (gene YMR271C): 1.7
level of expressed mRNA in the presence of chemical substance/in its absence (gene YMR272C): 0.8
level of expressed mRNA in the presence of chemical substance/in its absence (gene YMR296C): 0.8
level of expressed mRNA in the presence of chemical substance/in its absence (gene YNL012W): 1.6
The level of expressed mRNA in the presence of chemical substance/absence: YNL026W (gene YNL026W): 1.1
level of expressed mRNA in the presence of chemical substance/in its absence (gene YNL037C): 1.4
level of expressed mRNA in the presence of chemical substance/in its absence (gene YNL045W): 2.1
The level of expressed mRNA in the presence of chemical substance/absence: YNL058C (gene YNL058C): 1.0
The level of expressed mRNA in the presence of chemical substance/absence: YNL063W (gene YNL063W): 1.1
level of expressed mRNA in the presence of chemical substance/in its absence (gene YNL104C): 2.1
level of expressed mRNA in the presence of chemical substance/in its absence (gene YNL106C): 0.9
level of expressed mRNA in the presence of chemical substance/in its absence (gene YNL130C): 1.5
level of expressed mRNA in the presence of chemical substance/in its absence (gene YNL169C): 0.8
The level of expressed mRNA in the presence of chemical substance/absence: YNL176C (gene YNL176C): 1.2
The level of expressed mRNA in the presence of chemical substance/absence: YNL181W (gene YNL181W): 1.2
The level of expressed mRNA in the presence of chemical substance/absence: YNL191W (gene YNL191W): 1.0
The level of expressed mRNA in the presence of chemical substance/absence: YNL194C (gene YNL194C): 17.1
The level of expressed mRNA in the presence of chemical substance/absence: YNL200C (gene YNL200C): 3.1
The level of expressed mRNA in the presence of chemical substance/absence: YNL212W (gene YNL212W): 1.3
level of expressed mRNA in the presence of chemical substance/in its absence (gene YNL231C): 1.3
The level of expressed mRNA in the presence of chemical substance/absence: YNL253W (gene YNL253W): 0.8
The level of expressed mRNA in the presence of chemical substance/absence: YNL265C (gene YNL265C): 0.9
The level of expressed mRNA in the presence of chemical substance/absence: YNL276C (gene YNL276C): 0.7
level of expressed mRNA in the presence of chemical substance/in its absence (gene YNL322C): 0.6
level of expressed mRNA in the presence of chemical substance/in its absence (gene YNR002C): 1.6
level of expressed mRNA in the presence of chemical substance/in its absence (gene YNR019W): 0.7
level of expressed mRNA in the presence of chemical substance/in its absence (gene YNR033W): 0.4
The level of expressed mRNA in the presence of chemical substance/absence: YNR051C (gene YNR051C): 1.5
level of expressed mRNA in the presence of chemical substance/in its absence (gene YNR059W): 1.0
The level of expressed mRNA in the presence of chemical substance/absence: YOL026C (gene YOL026C): 1.2
The level of expressed mRNA in the presence of chemical substance/absence: YOL030W (gene YOL030W): 1.3
level of expressed mRNA in the presence of chemical substance/in its absence (gene YOL058W): 2.3
level of expressed mRNA in the presence of chemical substance/in its absence (gene YOL126C): 1.8
level of expressed mRNA in the presence of chemical substance/in its absence (gene YOL143C): 2.0
level of expressed mRNA in the presence of chemical substance/in its absence (gene YOL153C): 2.4
level of expressed mRNA in the presence of chemical substance/in its absence (gene YOL157C): 1.2
The level of expressed mRNA in the presence of chemical substance/absence: YOR022C (gene YOR022C): 1.7
The level of expressed mRNA in the presence of chemical substance/absence: YOR087W (gene YOR087W): 1.3
The level of expressed mRNA in the presence of chemical substance/absence: YOR088W (gene YOR088W): 0.8
level of expressed mRNA in the presence of chemical substance/in its absence (gene YOR099W): 1.2
level of expressed mRNA in the presence of chemical substance/in its absence (gene YOR130C): 0.6
level of expressed mRNA in the presence of chemical substance/in its absence (gene YOR136W): 1.4
The level of expressed mRNA in the presence of chemical substance/absence: YOR138C (gene YOR138C): 0.7
The level of expressed mRNA in the presence of chemical substance/absence: YOR155C (gene YOR155C): 1.6
